Assay results from patent publication US8143282B2, “Heterocyclic compounds” (S*BIO Pte Ltd., priority 2005, dated 2012).

Columns and labels:
HDAC1 enzyme = target: T1, HDAC1 enzyme (Homo sapiens, UniProt Q13547); experiment: In vitro HDAC assay for determination of IC50 values (BIOMOL fluorescent-based HDAC activity assay); format: biochemical
T1 construct: Amplification of human HDAC1 coding region from this cDNA library was cloned separately into the baculovirus expression pDEST20 vector; made in house; host or cells: SF9 insect cells, pDEST20-HDAC1 baculovirus
T1 sequence (Q13547 whole entry): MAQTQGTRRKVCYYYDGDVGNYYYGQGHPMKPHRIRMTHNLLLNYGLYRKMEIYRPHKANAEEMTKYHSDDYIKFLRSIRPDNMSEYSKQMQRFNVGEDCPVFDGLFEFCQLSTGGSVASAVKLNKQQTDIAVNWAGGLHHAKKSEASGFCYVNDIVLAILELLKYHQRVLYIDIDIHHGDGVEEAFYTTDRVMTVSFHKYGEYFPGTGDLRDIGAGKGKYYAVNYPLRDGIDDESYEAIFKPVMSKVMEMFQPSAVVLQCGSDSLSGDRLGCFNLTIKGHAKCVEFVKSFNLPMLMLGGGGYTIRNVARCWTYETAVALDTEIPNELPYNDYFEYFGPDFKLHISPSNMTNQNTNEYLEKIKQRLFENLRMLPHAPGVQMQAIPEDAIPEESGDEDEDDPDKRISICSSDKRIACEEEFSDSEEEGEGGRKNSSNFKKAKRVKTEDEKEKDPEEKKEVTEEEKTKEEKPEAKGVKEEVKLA
Method in brief: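 Recombinant GST-HDAC1, cloned from SW620 cDNA and expressed in Sf9 cells, tested in a fluorogenic Fluor de Lys deacetylase assay. Developer was added for 10 min and fluorescence read at 360/460 nm. IC50 came from concentration series.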

Colo205 cells = experiment: Cell-based proliferation assay for GI50 (CyQUANT), Colo205; conditions: Homo sapiens, COLO 205, 96 h treatment, read-out: Cellular or Growth Inhibition Activity in Colo205 cells, GI50
Method in brief: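 Cells were seeded at 1000 (PC3), 5000 (Colo205), 6000 (HCT116) or 4000 (HEP3B) per well and left 24 h at 37° C. Compound treatment lasted 96 h. Growth was read by CyQUANT, and GI50 (50% growth inhibition) came from dose-response curves.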

[1] = Measurement of microsomal stability; format: in vitro ADME; conditions: pooled human liver microsomes, pH 7.4; human liver microsome, 5 μM test compound, 1.0 mg/ml microsomal protein
Protocol: Metabolic stability measurements in the in vitro using liver microsomes aids in the prediction of the in vivo hepatic clearance and the compound stability towards phase I biotransformation reactions mediated by P450 isozymes.
Pooled human liver microsome (HLM was purchased from BD Gentest (BD BioSciences). The incubations consisted of test compound (5 μM) or control compound (Verapamil), NADPH-generating system solution A (25 mM NADP^+, 66 mM glucose-6-phosphate, 66 mM MgCl2 in H2O), NADPH-generating system solution B (40 U/ml glucose-6-phosphate dehydrogenase in 5 mM sodium citrate) and 1.0 mg/ml microsomal protein, respectively, in 100 mM potassium phosphate buffer (pH 7.4). Samples were incubated for 0, 5, 15, 30, 45, 60 min. Reaction was terminated with ice-cold 80% acetonitrile and 20% DMSO. Samples were subsequently centrifuged at 4° C. for 15 min at 2,000 rpm. 100 μL of the supernatant was transferred to the LC-MS Plate for analysis. Before quantitative analysis, the compound was tuned in LC/MS machine to get the optimized MS condition. Liquid chromatography was performed on a Luna C18 column (Phenomenex U.S.A, Torrance, Calif.) (2×50 mm, 5 μM). % of the compound remaining (by area) at each time point is calculated with respect to time 0 min. Plot % remaining against time (min) to obtain the curve and use the Prism software to obtain the t1/2.

`CCCCCN(CC)CCn1cnc2cc(/C=C/C(=O)NO)ccc21` [Compound 88, 3-{1-[2-(Ethyl-pentyl-amino)-ethyl]-1H-benzoimidazol-5-yl}-N-hydroxy-acrylamide] gave an IC50 (HDAC1 enzyme) of 47 nM, a GI50 (Colo205 cells) of 550 nM and a half-life at 5 μM [1] greater than 30 min.
`CCN(CC)CCn1c(CCC(F)(F)F)nc2cc(/C=C/C(=O)NO)ccc21` [Compound 14, 3-[1-(2-Diethylamino-ethyl)-2-(3,3,3-trifluoro-propyl)-1H-benzoimidazol-5-yl]-N-hydroxy-acrylamide] gave an IC50 (HDAC1 enzyme) of 77 nM, a GI50 (Colo205 cells) of 630 nM and a half-life at 5 μM [1] greater than 30 min.
With `CCCCCCc1nc2cc(/C=C/C(=O)NO)ccc2n1C1CCNC1` (stereo not shown) [Compound 80, 3-(2-Hexyl-1-pyrrolidin-3-yl-1H-benzoimidazol-5-yl)-N-hydroxy-acrylamide] the IC50 (HDAC1 enzyme) was 40 nM, the GI50 (Colo205 cells) was 1370 nM and the half-life at 5 μM [1] was greater than 30 min.
For `CCCCc1nc2cc(/C=C/C(=O)NO)ccc2n1CCN(C)C(C)C` [Compound 78, 3-{2-Butyl-1-[2-(isopropyl-methyl-amino)-ethyl]-1H-benzoimidazol-5-yl}-N-hydroxy-acrylamide], the IC50 (HDAC1 enzyme) was 44 nM, the GI50 (Colo205 cells) was 540 nM and the half-life at 5 μM [1] was greater than 30 min.
With `CSCCc1nc2cc(/C=C/C(=O)NO)ccc2n1CC(C)(C)CN(C)C` [Compound 4, 3-[1-(3-Dimethylamino-2,2-dimethyl-propyl)-2-(2-methylsulfanyl-ethyl)-1H-benzoimidazol-5-yl]-N-hydroxy-acrylamide] the IC50 (HDAC1 enzyme) was 120 nM and the GI50 (Colo205 cells) was 2620 nM.
`C=CCCCN(C)CCn1cnc2cc(/C=C/C(=O)NO)ccc21` [Compound 127, N-Hydroxy-3-{1-[2-(methyl-pent-4-enyl-amino)-ethyl]-1H-benzoimidazol-5-yl}-acrylamide] gave an IC50 (HDAC1 enzyme) of 78 nM and a GI50 (Colo205 cells) of 340 nM.
With `CCNCCn1c(CC(C)(C)C)nc2cc(/C=C/C(=O)NO)ccc21` [Compound 36] the IC50 (HDAC1 enzyme) was 96 nM and the GI50 (Colo205 cells) was 860 nM.
In the case of `CCCCN(CCn1cnc2cc(/C=C/C(=O)NO)ccc21)C(C)C` [Compound 108, 3-{1-[2-(Butyl-isopropyl-amino)-ethyl]-1H-benzoimidazol-5-yl}-N-hydroxy-acrylamide], the IC50 (HDAC1 enzyme) is reported as 43 nM, the GI50 (Colo205 cells) is reported as 440 nM and the half-life at 5 μM [1] is reported as greater than 30 min.
In the case of `CC/C=C\CCc1nc2cc(/C=C/C(=O)NO)ccc2n1CCN(CC)CC` [Compound 26, 3-[1-(2-Diethylamino-ethyl)-2-hex-3-enyl-1H-benzoimidazol-5-yl]-N-hydroxy-acrylamide], the IC50 (HDAC1 enzyme) is reported as 40 nM and the GI50 (Colo205 cells) is reported as 370 nM.
Work on `CCCCCCCN(CC)CCn1cnc2cc(/C=C/C(=O)NO)ccc21` [Compound 89, 3-{1-[2-(Ethyl-heptyl-amino)-ethyl]-1H-benzoimidazol-5-yl}-N-hydroxy-acrylamide] yielded an IC50 (HDAC1 enzyme) of 80 nM and a GI50 (Colo205 cells) of 870 nM.
Compound `CC(C)NCCn1c(CC(C)(C)C)nc2cc(/C=C/C(=O)NO)ccc21` [Compound 19] has an IC50 (HDAC1 enzyme) of 64 nM, a GI50 (Colo205 cells) of 530 nM and a half-life at 5 μM [1] greater than 30 min.
`C=CCCc1nc2cc(/C=C/C(=O)NO)ccc2n1CCN(CC)CC` [Compound 11, 3-[2-But-3-enyl-1-(2-diethylamino-ethyl)-1H-benzoimidazol-5-yl]-N-hydroxy-acrylamide] gave an IC50 (HDAC1 enzyme) of 70 nM, a GI50 (Colo205 cells) of 480 nM and a half-life at 5 μM [1] greater than 30 min.
With `CN(C)CC(C)(C)Cn1c(C2CCCCC2)nc2cc(/C=C/C(=O)NO)ccc21` [Compound 24, 3-[2-Cyclohexyl-1-(3-dimethylamino-2,2-dimethyl-propyl)-1H-benzoimidazol-5-yl]-N-hydroxy-acrylamide] the IC50 (HDAC1 enzyme) was 510 nM and the GI50 (Colo205 cells) was 2990 nM.
In the case of `CCCCCc1nc2cc(/C=C/C(=O)NO)ccc2n1CCNC` [Compound 75, N-Hydroxy-3-[1-(2-methylamino-ethyl)-2-pentyl-1H-benzoimidazol-5-yl]-acrylamide], the IC50 (HDAC1 enzyme) is reported as 50 nM and the GI50 (Colo205 cells) is reported as 1200 nM.
In the case of `CC(C)N(CCn1c(CCC(F)(F)F)nc2cc(/C=C/C(=O)NO)ccc21)C(C)C` [Compound 34, 3-[1-(2-Diisopropylamino-ethyl)-2-(3,3,3-trifluoro-propyl)-1H-benzoimidazol-5-yl]-N-hydroxy-acrylamide], the IC50 (HDAC1 enzyme) is reported as 880 nM and the GI50 (Colo205 cells) is reported as 4400 nM.
With `CC(C)NCCn1c(CCC(F)(F)F)nc2cc(/C=C/C(=O)NO)ccc21` [Compound 53, N-Hydroxy-3-[1-(2-isopropylamino-ethyl)-2-(3,3,3-trifluoro-propyl)-1H-benzoimidazol-5-yl]-acrylamide] the IC50 (HDAC1 enzyme) was 100 nM and the GI50 (Colo205 cells) was 1050 nM.
Compound `CCNCCn1c(CC(C)C)nc2cc(/C=C/C(=O)NO)ccc21` [Compound 37, 3-[1-(2-Ethylamino-ethyl)-2-isobutyl-1H-benzoimidazol-5-yl]-N-hydroxy-acrylamide] has an IC50 (HDAC1 enzyme) of 91 nM and a GI50 (Colo205 cells) of 1090 nM.
Work on `CCCNc1nc2cc(/C=C/C(=O)NO)ccc2n1CCN(CC)CC` [Compound 105, 3-[1-(2-Diethylamino-ethyl)-2-propylamino-1H-benzoimidazol-5-yl]-N-hydroxy-acrylamide] yielded an IC50 (HDAC1 enzyme) of 130 nM and a GI50 (Colo205 cells) of 1770 nM.
With `CC/C=C\CCCCCc1nc2cc(/C=C/C(=O)NO)ccc2n1CCNC` [Compound 73, N-Hydroxy-3-[1-(2-methylamino-ethyl)-2-non-6-enyl-1H-benzoimidazol-5-yl]-acrylamide] the IC50 (HDAC1 enzyme) was 26 nM and the GI50 (Colo205 cells) was 230 nM.
Compound `C#CCCc1nc2cc(/C=C/C(=O)NO)ccc2n1CC(C)(C)CN(C)C` [Compound 9, 3-[2-But-3-ynyl-1-(3-dimethylamino-2,2-dimethyl-propyl)-1H-benzoimidazol-5-yl]-N-hydroxy-acrylamide] has an IC50 (HDAC1 enzyme) of 210 nM and a GI50 (Colo205 cells) of 1870 nM.
`CC(C)NCCCn1c(CC(C)(C)C)nc2cc(/C=C/C(=O)NO)ccc21` [Compound 33, 3-[2-(2,2-Dimethyl-propyl)-1-(3-isopropylamino-propyl)-1H-benzoimidazol-5-yl]-N-hydroxy-acrylamide] gave an IC50 (HDAC1 enzyme) of 230 nM and a GI50 (Colo205 cells) of 2110 nM.
With `CCCCN(CCn1cnc2cc(/C=C/C(=O)NO)ccc21)CC(F)(F)F` [Compound 138, 3-(1-{2-[Butyl-(2,2,2-trifluoro-ethyl)-amino]-ethyl}-1H-benzoimidazol-5-yl)-N-hydroxy-acrylamide] the IC50 (HDAC1 enzyme) was 100 nM and the GI50 (Colo205 cells) was 1960 nM.
`CCOCc1nc2cc(/C=C/C(=O)NO)ccc2n1CCN(CC)CC` [Compound 15, 3-[1-(2-Diethylamino-ethyl)-2-ethoxymethyl-1H-benzoimidazol-5-yl]-N-hydroxy-acrylamide] showed an IC50 (HDAC1 enzyme) of 85 nM and a GI50 (Colo205 cells) of 1500 nM.
In the case of `CC(C)(C)CCN1CCC(n2cnc3cc(/C=C/C(=O)NO)ccc32)C1` (stereo not shown) [Compound 99, 3-{1-[1-(3,3-Dimethyl-butyl)-pyrrolidin-3-yl]-1H-benzoimidazol-5-yl}-N-hydroxy-acrylamide], the IC50 (HDAC1 enzyme) is reported as 120 nM and the GI50 (Colo205 cells) is reported as 1890 nM.
Work on `O=C(/C=C/c1ccc2c(c1)ncn2C1CCCN(CCc2ccccc2)C1)NO` (stereo not shown) [Compound 96, (E)-N-hydroxy-3-(1-(1-phenethylpiperidin-3-yl)-1H-benzo[d]imidazol-5-yl)acrylamide] yielded an IC50 (HDAC1 enzyme) of 80 nM and a GI50 (Colo205 cells) of 700 nM.
`CCN(CC)CCn1c(CC(C)CC(C)(C)C)nc2cc(/C=C/C(=O)NO)ccc21` (stereo not shown) [Compound 41, 3-[1-(2-Diethylamino-ethyl)-2-(2,4,4-trimethyl-pentyl)-1H-benzoimidazol-5-yl]-N-hydroxy-acrylamide] showed an IC50 (HDAC1 enzyme) of 62 nM and a GI50 (Colo205 cells) of 920 nM.
Compound `CCN(CC)CCn1c(CCCCC#N)nc2cc(/C=C/C(=O)NO)ccc21` [Compound 101, 3-[2-(4-Cyano-butyl)-1-(2-diethylamino-ethyl)-1H-benzoimidazol-5-yl]-N-hydroxy-acrylamide] has an IC50 (HDAC1 enzyme) of 80 nM and a GI50 (Colo205 cells) of 2440 nM.
`C#CCCc1nc2cc(/C=C/C(=O)NO)ccc2n1CCN(CC)CC` [Compound 12, 3-[2-But-3-ynyl-1-(2-diethylamino-ethyl)-1H-benzoimidazol-5-yl]-N-hydroxy-acrylamide] showed an IC50 (HDAC1 enzyme) of 64 nM, a GI50 (Colo205 cells) of 510 nM and a half-life at 5 μM [1] greater than 30 min.
Work on `CC(C)c1nc2cc(/C=C/C(=O)NO)ccc2n1CC(C)(C)CN(C)C` [Compound 2, 3-[1-(3-Dimethylamino-2,2-dimethyl-propyl)-2-isopropyl-1H-benzoimidazol-5-yl]-N-hydroxy-acrylamide] yielded an IC50 (HDAC1 enzyme) of 380 nM, a GI50 (Colo205 cells) of 2120 nM and a half-life at 5 μM [1] greater than 30 min.
Work on `CC(C)Cc1nc2cc(/C=C/C(=O)NO)ccc2n1CCNC(C)C` [Compound 35, N-Hydroxy-3-[2-isobutyl-1-(2-isopropylamino-ethyl)-1H-benzoimidazol-5-yl]-acrylamide] yielded an IC50 (HDAC1 enzyme) of 82 nM, a GI50 (Colo205 cells) of 660 nM and a half-life at 5 μM [1] greater than 30 min.
